# Measurements reported in publication PMC6367342, “The major allergen Der p 2 is a cholesterol binding protein” (Scientific Reports, 2019).
# Target: T1, rDer f 2 (Dermatophagoides farinae, UniProt Q00855)
# T1 construct: gene DERF2
# T1 sequence (Q00855 18-146): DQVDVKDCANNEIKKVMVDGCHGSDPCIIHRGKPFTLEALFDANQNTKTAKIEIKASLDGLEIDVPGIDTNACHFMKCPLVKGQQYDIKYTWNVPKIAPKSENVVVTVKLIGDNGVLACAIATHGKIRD
# Experiment: lipid ELISA on immobilized lipid, polyclonal anti-allergen IgG detection
# Assay type: binding
# Conditions: 0.5 ug/mL protein; lipid coated 0.02-6.40 nmol/well; PBS, 1% BSA block; 1 h
compound,measurement,value
CC(C)CCC[C@@H](C)[C@H]1CC[C@H]2[C@@H]3CC=C4C[C@@H](O)CC[C@]4(C)[C@H]3CC[C@]12C [cholesterol],"lipid ELISA on immobilized lipid, polyclonal anti-allergen IgG detection","also showed dose-dependent binding to cholesterol, but not POPG"
